Data reported in patent publication US8859534B2, “2-carboxamide-7-piperazinyl-benzofuran derivatives” (AstraZeneca AB, priority 2009, dated 2014).
pKd, pKi: −log10 of the molar value.

Legend:
5-HT1B receptor = 5-HT1B receptor (Homo sapiens (Human), UniProt P28222); assay: 5-HT1B receptor competition binding assay (SPA, [3H]-GR125743); details: for pKi: membranes of CHO cells expressing 5-HT1B receptors, radioligand [3H]-GR125743 0.15-0.2 nM
Excerpt: (§1) Assays that were used to measure affinity of the compounds of the present invention for 5-HT1A and 5-HT1B receptors are described in J. Recept Signal Transduct. Res. 22:483-495 (2002) and Naunyn-Schmiedeberg's Arch Pharmacol. 356:328-334 (1997) and incorporated by reference herein. These assays were be used with some modifications:
(§2) For the binding assay stably transfected chinese hamster ovary (CHO) cell lines expressing 5-HT1A receptors or 5-HT1B receptors were harvested by centrifugation at 300×g for 10 min and resuspended in 10 mM Tris-HCl, 5 mM EDTA at pH 7.4. The cells were pooled, recentrifuged and resuspended before homogenisation using a Dounce homogeniser (“type B”). Cell membranes were centrifuged at 48 000×g for 10 min and then resuspended in harvesting buffer using an Ultra-Turrax T8 (IKA Labortechnik, Germany), aliquots were stored frozen in −70° C.
Frozen membrane preparations were thawed, homogenized with an Ultra-Turrax and mixed with SPA beads (YSI coated WGA, GE Healthcare/Amersham, Buckinghamshire, UK) in assay buffer containing 50 mM Tris-Base, 4 mM MgCl2, 4 mM CaCl2 (only 5-HT1B), 1 mM EDTA, and adjusted to pH 7.4 with HCl. The beads/membrane solution, final concentration 100 pM receptors for 5-HT1A, 300 pM receptors for 5-HT1B and 0.5 mg SPA beads/well, was pre-incubated in room temperature with stirring for 30-60 min. […] Five (log interval, 10 μM to 1 nM, final concentration) or ten serial dilutions (½-log interval, 10 μM to 0.32 nM, final concentration) of compounds were prepared in DMSO from 10 mM stock solutions. The binding assays were performed in 384-well plates in a final volume of 90 μL/well with the following additions: 9 μL binding buffer; 1 μL compound/DMSO/nonspecific; 20 μL radioligand; and 60 μL beads/membrane mixture. Non-specific binding was defined by using 10 μM WAY100635 for 5-HT1A and 10 μM Methiothepin for 5-HT1B. The assay plates were incubated for 4 hours where after the plates are counted in a Wallac 1450 Microbeta Trilux counter (PerkinElmer LifeScience, US) or similar. Data from the experiments were analyzed using a four parameter logistic equation as follows: Y=Bottom+(Top-Bottom)/1+10^(LogEC50-X)nH.
• Jerning E., Rosqvist S., Mohell N. (2002) NAD-299 antagonises 5-HT-stimulated and Spiperone-inhibited [^35S]GTPγS binding in cloned 5-HT1A receptors. J Recept Signal Transduct Res 22:483-495. • Doménech T., Beleta J., Palacios J. M. (1997) Characterization of human serotonin 1D and 1B receptors using [^3H]-GR-125743, a novel radiolabelled serotonin 5HT1D/1B receptor antagonist. Naunyn-Schmiedeberg's Arch Pharmacol 356:328-334.

5-HT1A receptor = 5-HT1A receptor (Homo sapiens (Human), UniProt P08908); assay: 5-HT1A receptor competition binding assay (SPA, [3H]-8-OH-DPAT); details: membranes of CHO cells expressing 5-HT1A receptors; radioligand [3H]-8-OH-DPAT 0.15-0.2 nM
Excerpt: as §1, §2
Frozen membrane preparations were thawed, homogenized with an Ultra-Turrax and mixed with SPA beads (YSI coated WGA, GE Healthcare/Amersham, Buckinghamshire, UK) in assay buffer containing 50 mM Tris-Base, 4 mM MgCl2, 4 mM CaCl2 (only 5-HT1B), 1 mM EDTA, and adjusted to pH 7.4 with HCl. […] The binding assays were performed in 384-well plates in a final volume of 90 μL/well with the following additions: 9 μL binding buffer; 1 μL compound/DMSO/nonspecific; 20 μL radioligand; and 60 μL beads/membrane mixture. Non-specific binding was defined by using 10 μM WAY100635 for 5-HT1A and 10 μM Methiothepin for 5-HT1B. The assay plates were incubated for 4 hours where after the plates are counted in a Wallac 1450 Microbeta Trilux counter (PerkinElmer LifeScience, US) or similar. Data from the experiments were analyzed using a four parameter logistic equation as follows: Y=Bottom+(Top-Bottom)/1+10^(LogEC50-X)nH.

Sequence of 5-HT1B receptor (P28222 whole entry): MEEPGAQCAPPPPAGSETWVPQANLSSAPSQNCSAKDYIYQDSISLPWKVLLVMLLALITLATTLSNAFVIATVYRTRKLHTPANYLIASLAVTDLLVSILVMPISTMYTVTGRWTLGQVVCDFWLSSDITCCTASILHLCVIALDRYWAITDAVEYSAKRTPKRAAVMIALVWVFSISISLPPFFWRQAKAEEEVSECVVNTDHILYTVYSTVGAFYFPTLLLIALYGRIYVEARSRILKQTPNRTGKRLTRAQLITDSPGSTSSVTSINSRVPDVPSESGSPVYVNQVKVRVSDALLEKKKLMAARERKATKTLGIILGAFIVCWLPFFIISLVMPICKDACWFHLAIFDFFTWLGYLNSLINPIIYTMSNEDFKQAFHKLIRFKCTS
Sequence of 5-HT1A receptor (P08908 whole entry): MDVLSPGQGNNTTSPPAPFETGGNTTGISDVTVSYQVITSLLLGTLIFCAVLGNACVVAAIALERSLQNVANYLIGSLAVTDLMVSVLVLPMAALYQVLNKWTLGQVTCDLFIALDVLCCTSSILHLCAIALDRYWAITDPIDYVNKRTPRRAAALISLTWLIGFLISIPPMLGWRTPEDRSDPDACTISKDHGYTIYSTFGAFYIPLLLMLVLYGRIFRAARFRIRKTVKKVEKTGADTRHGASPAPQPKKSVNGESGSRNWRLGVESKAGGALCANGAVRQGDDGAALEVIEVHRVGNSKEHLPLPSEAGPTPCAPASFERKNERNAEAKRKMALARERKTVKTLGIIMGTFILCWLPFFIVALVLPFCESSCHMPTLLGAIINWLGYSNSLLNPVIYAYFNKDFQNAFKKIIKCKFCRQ

Row | pKi (5-HT1B receptor) | pKi (5-HT1A receptor) | pKd (5-HT1B receptor; 5-HT1B receptor, Kd used in the calculation of Ki, read-out: Kd of radioligand, saturation binding studies) | Compound
1 | 7.72 | 8.89 |  | O=C(NCc1ccccn1)c1cc2cccc(N3CCN(CCc4ccccn4)CC3)c2o1 [Example 1, 7-(4-(2-(Pyridin-2-yl)ethyl)piperazin-1-yl)-N-(pyridin-2-ylmethyl)benzofuran-2-carboxamide]
2 | 8.96 | 8.89 |  | O=C(Nc1ccc(N2CCOCC2)cc1)c1cc2cccc(N3CCN(CCc4ccccn4)CC3)c2o1 [Example 2, N-(4-Morpholinophenyl)-7-(4-(2-(pyridin-2-yl)ethyl)piperazin-1-yl)benzofuran-2-carboxamide]
3 | 9.28 | 9.85 |  | O=C(NC1CCN(c2ccccc2)CC1)c1cc2cccc(N3CCN(CCc4ccccn4)CC3)c2o1 [Example 3, N-(1-Phenylpiperidin-4-yl)-7-(4-(2-(pyridin-2-yl)ethyl)piperazin-1-yl)benzofuran-2-carboxamide]
4 | 8.74 | 9.70 |  | CS(=O)(=O)c1ccc(CNC(=O)c2cc3cccc(N4CCN(CCc5ccccn5)CC4)c3o2)cc1 [Example 4, N-(4-(Methylsulfonyl)benzyl)-7-(4-(2-(pyridin-2-yl)ethyl)piperazin-1-yl)benzofuran-2-carboxamide]
5 | 7.43 | 8.66 |  | Cn1cnc(CNC(=O)c2cc3cccc(N4CCN(CCc5ccccn5)CC4)c3o2)c1 [Example 5, N-((1-Methyl-1H-imidazol-4-yl)methyl)-7-(4-(2-(pyridin-2-yl)ethyl)piperazin-1-yl)benzofuran-2-carboxamide]
6 | 7.09 |  |  | CC(=O)N1CCC(NC(=O)c2cc3cccc(N4CCN(CCc5ccccn5)CC4)c3o2)CC1 [Example 6, N-(1-Acetylpiperidin-4-yl)-7-(4-(2-(pyridin-2-yl)ethyl)piperazin-1-yl)benzofuran-2-carboxamide]
7 | 8.05 | 9.23 |  | CC(NC(=O)c1cc2cccc(N3CCN(CCc4ccccn4)CC3)c2o1)c1ccccn1 (stereo not shown) [Example 7, N-(1-(Pyridin-2-yl)ethyl)-7-(4-(2-(pyridin-2-yl)ethyl)piperazin-1-yl)benzofuran-2-carboxamide]
8 | 9.55 | 9.54 |  | O=C(NC1CCN(c2ncccc2Cl)CC1)c1cc2cccc(N3CCN(CCc4ccccn4)CC3)c2o1 [Example 8, N-(1-(3-Chloropyridin-2-yl)piperidin-4-yl)-7-(4-(2-(pyridin-2-yl)ethyl)piperazin-1-yl)benzofuran-2-carboxamide]
9 |  | 9.36 |  | N#Cc1ccc(CNC(=O)c2cc3cccc(N4CCN(CCc5ccccn5)CC4)c3o2)cc1 [Example 9, N-(4-Cyanobenzyl)-7-(4-(2-(pyridin-2-yl)ethyl)piperazin-1-yl)benzofuran-2-carboxamide]
10 | 8.68 | 9.80 |  | CN(C)C(=O)c1cc2cccc(N3CCN(CCc4ccccn4)CC3)c2o1 [Example 11, N,N-Dimethyl-7-(4-(2-(pyridin-2-yl)ethyl)piperazin-1-yl)benzofuran-2-carboxamide]
11 | 9.06 | 9.96 |  | CNC(=O)c1cc2cccc(N3CCN(CCc4ccccn4)CC3)c2o1 [Example 12, N-Methyl-7-(4-(2-(pyridin-2-yl)ethyl)piperazin-1-yl)benzofuran-2-carboxamide]
12 | 8.19 |  |  | O=C(NC1CC1)c1cc2cccc(N3CCN(CCc4ccccn4)CC3)c2o1 [Example 13, N-Cyclopropyl-7-(4-(2-(pyridin-2-yl)ethyl)piperazin-1-yl)benzofuran-2-carboxamide]
13 | 7.38 | 8.48 |  | O=C(NC1CC(F)(F)C1)c1cc2cccc(N3CCN(CCc4ccccn4)CC3)c2o1 [Example 14, N-(3,3-Difluorocyclobutyl)-7-(4-(2-(pyridin-2-yl)ethyl)piperazin-1-yl)benzofuran-2-carboxamide]
14 | 7.80 | 8.85 |  | O=C(c1cc2cccc(N3CCN(CCc4ccccn4)CC3)c2o1)N1CCC1 [Example 15, Azetidin-1-yl(7-(4-(2-(pyridin-2-yl)ethyl)piperazin-1-yl)benzofuran-2-yl)methanone]
15 | 8.36 | 9.11 |  | O=C(c1cc2cccc(N3CCN(CCc4ccccn4)CC3)c2o1)N1CCCC1 [Example 16, (7-(4-(2-(Pyridin-2-yl)ethyl)piperazin-1-yl)benzofuran-2-yl)(pyrrolidin-1-yl)methanone]
16 | 8.48 | 8.70 |  | CS(=O)(=O)Cc1ccc(CNC(=O)c2cc3cccc(N4CCN(CCc5ccccn5)CC4)c3o2)cc1 [Example 17, N-(4-(Methylsulfonylmethyl)benzyl)-7-(4-(2-(pyridin-2-yl)ethyl)piperazin-1-yl)benzofuran-2-carboxamide]
17 | 9.15 | 8.89 |  | COc1cccc(CCNC(=O)c2cc3cccc(N4CCN(CCc5ccccn5)CC4)c3o2)c1 [Example 18, N-(3-Methoxyphenethyl)-7-(4-(2-(pyridin-2-yl)ethyl)piperazin-1-yl)benzofuran-2-carboxamide]
18 | 8.00 | 9.00 |  | CN(Cc1cccc(S(C)(=O)=O)c1)C(=O)c1cc2cccc(N3CCN(CCc4ccccn4)CC3)c2o1 [Example 19, N-Methyl-N-(3-(methylsulfonyl)benzyl)-7-(4-(2-(pyridin-2-yl)ethyl)piperazin-1-yl)benzofuran-2-carboxamide]
19 | 8.12 | 8.96 |  | N#Cc1ccc(CNC(=O)c2cc3cccc(N4CCN(CCc5ccccn5)CC4)c3o2)cn1 [Example 20, N-((6-Cyanopyridin-3-yl)methyl)-7-(4-(2-(pyridin-2-yl)ethyl)piperazin-1-yl)benzofuran-2-carboxamide]
20 | 7.20 | 8.59 |  | CN(Cc1cccnc1)C(=O)c1cc2cccc(N3CCN(CCc4ccccn4)CC3)c2o1 [Example 21, N-Methyl-7-(4-(2-(pyridin-2-yl)ethyl)piperazin-1-yl)-N-(pyridin-3-ylmethyl)benzofuran-2-carboxamide]
21 | 7.77 |  |  | Cn1cnc(CCNC(=O)c2cc3cccc(N4CCN(CCc5ccccn5)CC4)c3o2)c1 [Example 30, N-(2-(1-Methyl-1H-imidazol-4-yl)ethyl)-7-(4-(2-(pyridin-2-yl)ethyl)piperazin-1-yl)benzofuran-2-carboxamide]
22 | 7.18 |  |  | COc1ccnc(CCN2CCN(c3cccc4cc(C(=O)N(C)C)oc34)CC2)c1 [Example 39, 7-(4-(2-(4-Methoxypyridin-2-yl)ethyl)piperazin-1-yl)-N,N-dimethylbenzofuran-2-carboxamide]
23 | 7.14 |  |  | CN(C)C(=O)c1cc2cccc(N3CCN(CCc4cc(C#N)ccn4)CC3)c2o1 [Example 41, 7-(4-(2-(4-Cyanopyridin-2-yl)ethyl)piperazin-1-yl)-N,N-dimethylbenzofuran-2-carboxamide]
24 |  | 9.80 |  | COc1cccnc1CCN1CCN(c2cccc3cc(C(=O)N(C)C)oc23)CC1 [Example 48, 7-(4-(2-(3-Methoxy-2-pyridyl)ethyl)piperazin-1-yl)-N,N-dimethylbenzofuran-2-carboxamide]
25 | 7.85 |  |  | CC(=O)N1CCc2cc(CCN3CCN(c4cccc5cc(C(=O)N6CCC6)oc45)CC3)ccc21 [Example 49, 1-(5-(2-(4-(2-(Azetidine-1-carbonyl)benzofuran-7-yl)piperazin-1-yl)ethyl)indolin-1-yl)ethanone]
26 |  |  | 9.06 | COc1ccc(NC(=O)c2ccc(-c3ccncc3)c(C)c2)cc1N1CCN(C)CC1 [[^3H]-GR125743, reference compound]
